The results in this text go back to US20250177481A1, “SCO-spondin-derived polypeptides for enhancing synaptic transmission” (AXOLTIS PHARMA, priority 2021, published 2025).

Experiment [1] deals with subchronic PCP-induced cognitive deficits in mice. Briefly: T-maze continuous alternation task in subchronic PCP mice. The class given is in vivo, Swiss CD-1 mice. To be noted: PCP alone 30.71, control 66.43, 5 mg/kg. The source says: Phenycyclidine (PCP) is an antagonist of NMDA receptor, its administration in healthy humans produces schizophrenia-like symptoms, therefore PCP is often used to mimic schizophrenia in rodents. […] In addition, brain samples were collected shorlty after the T-Maze test to measure the levels of cerebral biomarkers involved in synaptic plasticity.
Sixty (60) male Swiss CD-1 mice were purchased from Janvier Labs (Le Genest-Saint-Isle, France) one week before the start of the study for acclimation. Mice were group-housed (6-8 mice per Eurostandard type Ill cage) and maintained in a room with controlled temperature (21-22° C.) under a reversed 12 h/12 h light-dark cycle (lights on: 5:[…]; lights off: 05:30 am) with food and water available ad libitum. The weight of mice ranged from 25.9 and 36.4 g. […]
Nicotine used as a positive control was administered at a dose of 0.4 mg/kg intraperitoneally 30 minutes prior to the T-maze trial
After administration of compounds at different timepoints all animals were tested for continuous alternation task in the T-Maze. The T-maze apparatus was made of gray Plexiglas with a main stem (55-cm long×10-cm wide×20-cm high) and two arms (30-cm long×10-cm wide×20-cm high) positioned at a 90-degree angle relative to the main stem. A start box (15-cm long×10-cm wide) was separated from the main stem by a guillotine door. Horizontal doors were also provided to close specific arms during the force choice alternation task. The experimental protocol consisted in one single session that started with 1 “forced-choice” trial, followed by 14 “free-choice” trials (Gerlai, 1998). In the first “forced-choice” trial, the mouse was confined 5 s in the start arm and then released while either the left or right goal arm was blocked by closing the sliding door. Then, it walked through the maze, eventually entered the open goal arm, and then returned to the start position. Immediately after the mouse came back to the start position, the left or right goal door was opened (i.e. the two goal doors were opened), and the mouse could choose freely between the left and right goal arms (first “free choice trial”). The mouse was considered as entered in the arm when it placed its four paws in the arm. The opposite goal door was then closed until the animal returned to the start arm. Then, a second “free choice trial” began by the opening of the closed goal door (i.e. the two goal doors were opened), leaving the choice to the mouse to enter either into the right or the left arm. The session was considered finished as soon as 14 free-choice trials had been performed in less than 10 min, and the mouse was removed from the maze. The time needed to reach these 14 “free-choices” was recorded.
The percent of spontaneous alternations was calculated as number of spontaneous alternations divided by the number of free-choice trials, an index of spatial short-term working memory. The apparatus was cleaned between each animal using alcohol (70%). Urine and feces were removed from the maze. During the trials, animal handling and the visibility of the operator were minimized as much as possible. Animals were tested in a random and blind manner.

In experiment [2] the test system is basal excitatory synaptic transmission at CA3-CA1 synapses. The experiment in a line: fEPSP input-output (I/O) recordings in CA1 of mouse hippocampal slices. In kind it is cell-based, C57Bl6/J mice. Particulars: NX218 250 μg/mL; for Normalized fEPSP slope: normalized to max slope in vehicle, mean of 10 slices. Here is the method:
Comparison of postsynaptic responses in control versus NX218 peptide conditions were assessed.
Five (C57Bl6/J) male mice 4-5 weeks-old were obtained from Charles River, France and housed in an animal facility. Animal care was compliant with national and local Ethics committee recommendations. Ten Sagittal hippocampal brain slices (2 per mouse) were obtained using standard brain slicing methods (Knobloch et al. 2007). Mice were anesthetized with 5% isoflurane and then decapitated. Brain was dissected out of the cranium and immediately immersed in ice-cold freshly prepared artificial cerebrospinal fluid (aCSF) containing: 124 mM NaCl, 3.75 mM KCl, 2 mM MgSO4, 2 mM CaCl2, 26.5 mM NaHCO3, 1.25 mM NaH2PO4, 10 mM glucose, continuously oxygenated (95% O2, 5% CO2) (pH=7.4) for a total duration of 3-4 minutes. Acute slices (350 μm thick) were prepared using a vibratome (VT 1000S; Leica Microsystems, Bannockburn, IL). Sections were incubated in standard aCSF (124 mM NaCl, 3.75 mM KCl, 2 mM MgSO4, 2 mM CaCl2, 26.5 mM NaHCO3, 1.25 mM NaH2PO4, 10 mM glucose) at room temperature for at least 1 h before recordings.
For electrophysiological recordings, a single slice was placed in the recording chamber (room temperature), submerged and continuously superfused with gassed aCSF (95% O2, 5% CO2; pH=7.4) at a constant rate (2 mL min^−1) for the reminder of the experiment. Extracellular field excitatory postsynaptic potentials (fEPSPs) were recorded in the CA1 stratum radiatum using a glass micropipette filled with aCSF. fEPSPs were evoked by the electrical stimulation of Schaffer collateral-commissural pathway at 0.1 Hz (i.e., a single pulse every 10 s) with a glass stimulating electrode (borosilicate capillary glass with filament, standard wall; OD: 1.5 mm; ID: 0.86 mm; Length: 75 mm; ref: W3 30-0060 from Harvard Apparatus) placed in the stratum radiatum.
After 10 minutes of stabilization, basal synaptic transmission was assessed. […] This procedure was repeated 3 times, 30 seconds interval for each session. A single session final I/O curve was obtained by plotting the averaged rationalised slopes of fEPSPs as a function of the stimulation intensity.
The signal was amplified with an Axopatch 200B amplifier (Molecular Devices, Union City, CA) digitized by a Digidata 1322A interface (Axon Instruments, Molecular Devices, US) and sampled at 10 kHz. Recordings were acquired using Clampex (Molecular Devices) and analyzed with Clampfit (Molecular Devices).
All data was normalized from the fEPSP maximum slope recorded in control condition (during vehicle bath application). […] Potential outliers were identified for exclusion using the following criteria: >3 standard deviations away from the group mean in either direction.

Several values for one entry are separate records, joined by “and”; a condition that tells them apart may be missing. Equal entries are not always repeated. Positions of bridges follow the written chain, without caps; N, C: chain ends. No end group written: not given here.

With “W-S-G-W-S-S-C-S-R-S-C-G [NX218] (WSGWSSCSRSCG; disulfide 7-11 (inferred))”, the “Spontaneous alternations in T-maze” value in experiment [1] (PCP + 5 mg/kg i.p. on D12, D13 and D14 (48 h, 24 h and 2 h before trial), n=10) is 62% and 62.13%; in experiment [1] (PCP + 5 mg/kg i.p. on D13 (24 h before trial), n=9), 35% and 34.92%; in experiment [1] (PCP + 5 mg/kg i.p. on D14 (2 h before trial), n=10), 53% and 52.87%. Besides, in experiment [2], the “change of basal excitatory synaptic transmission vs control condition (whole I/O curve)” value was “statistical increase”. Also, the “Normalized fEPSP slope” value was found to be 0.09% in experiment [2] (stimulation intensity 0 µA); 30.78% in experiment [2] (stimulation intensity 50 µA); 71.26% in experiment [2] (stimulation intensity 100 µA); 110.51% in experiment [2] (stimulation intensity 150 µA); 134.44% in experiment [2] (stimulation intensity 200 µA); 149.89% in experiment [2] (stimulation intensity 250 µA). The “Normalized fEPSP slope” value came out at 156.80% in experiment [2] (stimulation intensity 300 µA); 160.72% in experiment [2] (stimulation intensity 350 µA); 164.01% in experiment [2] (stimulation intensity 400 µA); 164.39% in experiment [2] (stimulation intensity 450 µA); 166.29% in experiment [2] (stimulation intensity 500 µA); 167.00% in experiment [2] (stimulation intensity 550 µA). Also, the “Normalized fEPSP slope” value in experiment [2] (stimulation intensity 600 µA) amounted to 167.37%; in experiment [2] (stimulation intensity 650 µA), 168.66%; in experiment [2] (stimulation intensity 700 µA) it was 169.65%; in experiment [2] (stimulation intensity 750 µA), 169.89%; in experiment [2] (stimulation intensity 800 µA) it was 170.46%; in experiment [2] (stimulation intensity 850 µA), 171.65%.
